According to patent US20260125382A1, “COMPOUNDS FOR INHIBITING OR DEGRADING CDK2 AND/OR CDK9 AND MEDICINAL USE THEREOF” (KOREA RESEARCH INSTITUTE OF CHEMICAL TECHNOLOGY, priority 2022, published 2026):

How the values were obtained:
CDK9 = molecular target: T1, CDK9 (Homo sapiens, UniProt P50750); assay: CDK protein degradation activity (Western blotting), CDK9; type: cell-based; conditions: MDA-MB-231 cells, 16 hours, Western blot
T1 construct: endogenous in cells; host or cells: MDA-MB-231
Summary of the method: (§1)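 Breast cancer line MDA-MB-231, 16 h compound treatment (100 nM–10 μM final, three doses). Immunoblot quantification of CDK2/CDK9 versus tubulin, normalized to DMSO control.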

CDK2 = molecular target: T2, CDK2 (Homo sapiens, UniProt P24941); assay: CDK protein degradation activity (Western blotting), CDK2; type: cell-based; conditions: MDA-MB-231 cells, 16 hours, Western blot
T2 construct: endogenous in cells; host or cells: MDA-MB-231
Summary of the method: as §1

T1 sequence (P50750 whole entry): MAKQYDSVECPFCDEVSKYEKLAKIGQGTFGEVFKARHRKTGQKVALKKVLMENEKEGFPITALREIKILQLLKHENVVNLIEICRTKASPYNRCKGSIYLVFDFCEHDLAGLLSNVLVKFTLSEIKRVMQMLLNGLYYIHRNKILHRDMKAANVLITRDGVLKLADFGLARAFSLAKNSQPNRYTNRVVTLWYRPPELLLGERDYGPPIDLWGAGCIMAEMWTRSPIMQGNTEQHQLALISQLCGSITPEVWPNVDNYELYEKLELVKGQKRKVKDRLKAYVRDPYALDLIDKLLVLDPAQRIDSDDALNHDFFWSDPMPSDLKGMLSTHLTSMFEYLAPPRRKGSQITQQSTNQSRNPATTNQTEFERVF

Cc1cccc(C(=O)N[C@H]2C[C@@H](n3cnc4c(NCc5cccc(OCC6CCN(C(=O)CNc7ccc8c(c7)C(=O)N(C7CCC(=O)NC7=O)C8=O)CC6)c5)ncnc43)C2)n1 (stereo partly drawn) [Compound 96, N-((1s,3s)-3-(6-((3-((1-((2-(2,6-dioxopiperidin-3-yl)-1,3-dioxoisoindolin-5-yl)glycyl)piperidin-4-yl)methoxy)benzyl)amino)-9H-purin-9-yl)cyclobutyl)-6-methylpicolinamide]
Enzyme degradation CDK9 (% remaining) @ 0.1 μM (CDK9): 10% | Enzyme degradation CDK9 (% remaining) @ 1 μM (CDK9): 0% | Enzyme degradation CDK9 (% remaining) @ 10 μM (CDK9): 0% | Enzyme degradation CDK2 (% remaining) @ 0.1 μM (CDK2): 60% | Enzyme degradation CDK2 (% remaining) @ 1 μM (CDK2): 40% | Enzyme degradation CDK2 (% remaining) @ 10 μM (CDK2): 50%

Cc1cccc(C(=O)N[C@H]2C[C@@H](n3cnc4c(NCc5cccc(OCCCN6CCN(C(=O)COc7cccc8c7C(=O)N([C@H]7CCC(=O)NC7=O)C8=O)CC6)c5)ncnc43)C2)n1 [Compound 101, N-((1s,3s)-3-(6-((3-(3-(4-(2-((2-(2,6-dioxopiperidin-3-yl)-1,3-dioxoisoindolin-4-yl)oxy)acetyl)piperazin-1-yl)propoxy)benzyl)amino)-9H-purin-9-yl)cyclobutyl)-6-methylpicolinamide]
Enzyme degradation CDK9 (% remaining) @ 0.1 μM (CDK9): 80% | Enzyme degradation CDK9 (% remaining) @ 1 μM (CDK9): 30% | Enzyme degradation CDK9 (% remaining) @ 10 μM (CDK9): 30% | Enzyme degradation CDK2 (% remaining) @ 0.1 μM (CDK2): 70% | Enzyme degradation CDK2 (% remaining) @ 1 μM (CDK2): 50% | Enzyme degradation CDK2 (% remaining) @ 10 μM (CDK2): 40%

Cc1cccc(C(=O)N[C@H]2C[C@@H](n3cnc4c(NCc5cccc(OCCCN6CCN(C(=O)CNc7ccc8c(c7)C(=O)N([C@H]7CCC(=O)NC7=O)C8=O)CC6)c5)ncnc43)C2)n1 [Compound 102, N-((1s,3s)-3-(6-((3-(3-(4-((2-(2,6-dioxopiperidin-3-yl)-1,3-dioxoisoindolin-5-yl)glycyl)piperazin-1-yl)propoxy)benzyl)amino)-9H-purin-9-yl)cyclobutyl)-6-methylpicolinamide]
Enzyme degradation CDK9 (% remaining) @ 0.1 μM (CDK9): 90% | Enzyme degradation CDK9 (% remaining) @ 1 μM (CDK9): 20% | Enzyme degradation CDK9 (% remaining) @ 10 μM (CDK9): 10% | Enzyme degradation CDK2 (% remaining) @ 0.1 μM (CDK2): 100% | Enzyme degradation CDK2 (% remaining) @ 1 μM (CDK2): 70% | Enzyme degradation CDK2 (% remaining) @ 10 μM (CDK2): 70%

Cc1cccc(C(=O)N[C@H]2C[C@@H](n3cnc4c(NCc5cccc(OCCCN6CCN(C(=O)CNc7cccc8c7C(=O)N([C@H]7CCC(=O)NC7=O)C8=O)CC6)c5)ncnc43)C2)n1 [Compound 103, N-((1s,3s)-3-(6-((3-(3-(4-((2-(2,6-dioxopiperidin-3-yl)-1,3-dioxoisoindolin-4-yl)glycyl)piperazin-1-yl)propoxy)benzyl)amino)-9H-purin-9-yl)cyclobutyl)-6-methylpicolinamide]
Enzyme degradation CDK9 (% remaining) @ 0.1 μM (CDK9): 30% | Enzyme degradation CDK9 (% remaining) @ 1 μM (CDK9): 10% | Enzyme degradation CDK9 (% remaining) @ 10 μM (CDK9): 10% | Enzyme degradation CDK2 (% remaining) @ 0.1 μM (CDK2): 40% | Enzyme degradation CDK2 (% remaining) @ 1 μM (CDK2): 40% | Enzyme degradation CDK2 (% remaining) @ 10 μM (CDK2): 60%

Cc1cccc(C(=O)N[C@H]2C[C@@H](n3cnc4c(NCc5ccc(OCC6CCN(C(=O)COc7ccc8c(c7)C(=O)N([C@H]7CCC(=O)NC7=O)C8=O)CC6)cc5)ncnc43)C2)n1 [Compound 106, N-((1s,3s)-3-(6-((4-((1-(2-((2-(2,6-dioxopiperidin-3-yl)-1,3-dioxoisoindolin-5-yl)oxy)acetyl)piperidin-4-yl)methoxy)benzyl)amino)-9H-purin-9-yl)cyclobutyl)-6-methylpicolinamide]
Enzyme degradation CDK9 (% remaining) @ 0.1 μM (CDK9): 70% | Enzyme degradation CDK9 (% remaining) @ 1 μM (CDK9): 0% | Enzyme degradation CDK9 (% remaining) @ 10 μM (CDK9): 0% | Enzyme degradation CDK2 (% remaining) @ 0.1 μM (CDK2): 70% | Enzyme degradation CDK2 (% remaining) @ 1 μM (CDK2): 50% | Enzyme degradation CDK2 (% remaining) @ 10 μM (CDK2): 50%

Cc1cccc(C(=O)NC2CC(n3cnc4c(NCc5ccc(OCC6CCN(C(=O)COc7cccc8c7C(=O)N([C@H]7CCC(=O)NC7=O)C8=O)CC6)cc5)ncnc43)C2)n1 (stereo partly drawn) [Compound 107, N-((1s,3s)-3-(6-((4-((1-(2-((2-(2,6-dioxopiperidin-3-yl)-1,3-dioxoisoindolin-4-yl)oxy)acetyl)piperidin-4-yl)methoxy)benzyl)amino)-9H-purin-9-yl)cyclobutyl)-6-methylpicolinamide]
Enzyme degradation CDK9 (% remaining) @ 0.1 μM (CDK9): 90% | Enzyme degradation CDK9 (% remaining) @ 1 μM (CDK9): 20% | Enzyme degradation CDK9 (% remaining) @ 10 μM (CDK9): 0% | Enzyme degradation CDK2 (% remaining) @ 0.1 μM (CDK2): 60% | Enzyme degradation CDK2 (% remaining) @ 1 μM (CDK2): 50% | Enzyme degradation CDK2 (% remaining) @ 10 μM (CDK2): 100%

Cc1cccc(C(=O)N[C@H]2C[C@@H](n3cnc4c(NCc5ccc(OCC6CCN(C(=O)CNc7ccc8c(c7)C(=O)N([C@H]7CCC(=O)NC7=O)C8=O)CC6)cc5)ncnc43)C2)n1 [Compound 108, N-((1s,3s)-3-(6-((4-((1-((2-(2,6-dioxopiperidin-3-yl)-1,3-dioxoisoindolin-5-yl)glycyl)piperidin-4-yl)methoxy)benzyl)amino)-9H-purin-9-yl)cyclobutyl)-6-methylpicolinamide]
Enzyme degradation CDK9 (% remaining) @ 0.1 μM (CDK9): 0/0/0% | Enzyme degradation CDK9 (% remaining) @ 1 μM (CDK9): 0/0/0% | Enzyme degradation CDK9 (% remaining) @ 10 μM (CDK9): 0/0/0% | Enzyme degradation CDK2 (% remaining) @ 0.1 μM (CDK2): 30% | Enzyme degradation CDK2 (% remaining) @ 1 μM (CDK2): 30% | Enzyme degradation CDK2 (% remaining) @ 10 μM (CDK2): 60%

Cc1cccc(C(=O)N[C@H]2C[C@@H](n3cnc4c(NCc5ccc(OCC6CCN(C(=O)CNc7cccc8c7C(=O)N([C@H]7CCC(=O)NC7=O)C8=O)CC6)cc5)ncnc43)C2)n1 [Compound 109, N-((1s,3s)-3-(6-((4-((1-((2-(2,6-dioxopiperidin-3-yl)-1,3-dioxoisoindolin-4-yl)glycyl)piperidin-4-yl)methoxy)benzyl)amino)-9H-purin-9-yl)cyclobutyl)-6-methylpicolinamide]
Enzyme degradation CDK9 (% remaining) @ 0.1 μM (CDK9): 0/0/0% | Enzyme degradation CDK9 (% remaining) @ 1 μM (CDK9): 0/0/0% | Enzyme degradation CDK9 (% remaining) @ 10 μM (CDK9): 0/0/0% | Enzyme degradation CDK2 (% remaining) @ 0.1 μM (CDK2): 40% | Enzyme degradation CDK2 (% remaining) @ 1 μM (CDK2): 60% | Enzyme degradation CDK2 (% remaining) @ 10 μM (CDK2): 70%

Cc1cccc(C(=O)NC2CC(n3cnc4c(NCc5ccc(OCC6CCN(c7ccc8c(c7)C(=O)N([C@H]7CCC(=O)NC7=O)C8=O)CC6)cc5)ncnc43)C2)n1 (stereo partly drawn) [Compound 110, N-((1s,3s)-3-(6-((4-((1-(2-(2,6-dioxopiperidin-3-yl)-1,3-dioxoisoindolin-5-yl)piperidin-4-yl)methoxy)benzyl)amino)-9H-purin-9-yl)cyclobutyl)-6-methylpicolinamide]
Enzyme degradation CDK9 (% remaining) @ 0.1 μM (CDK9): 90% | Enzyme degradation CDK9 (% remaining) @ 1 μM (CDK9): 20% | Enzyme degradation CDK9 (% remaining) @ 10 μM (CDK9): 30% | Enzyme degradation CDK2 (% remaining) @ 0.1 μM (CDK2): 100% | Enzyme degradation CDK2 (% remaining) @ 1 μM (CDK2): 60% | Enzyme degradation CDK2 (% remaining) @ 10 μM (CDK2): 80%

Cc1cccc(C(=O)N[C@H]2C[C@@H](n3cnc4c(NCc5ccc(OCCCN6CCN(C(=O)COc7ccc8c(c7)C(=O)N([C@H]7CCC(=O)NC7=O)C8=O)CC6)cc5)ncnc43)C2)n1 [Compound 112, N-((1s,3s)-3-(6-((4-(3-(4-(2-((2-(2,6-dioxopiperidin-3-yl)-1,3-dioxoisoindolin-5-yl)oxy)acetyl)piperazin-1-yl)propoxy)benzyl)amino)-9H-purin-9-yl)cyclobutyl)-6-methylpicolinamide]
Enzyme degradation CDK9 (% remaining) @ 0.1 μM (CDK9): 100% | Enzyme degradation CDK9 (% remaining) @ 1 μM (CDK9): 0% | Enzyme degradation CDK9 (% remaining) @ 10 μM (CDK9): 0% | Enzyme degradation CDK2 (% remaining) @ 0.1 μM (CDK2): 100% | Enzyme degradation CDK2 (% remaining) @ 1 μM (CDK2): 50% | Enzyme degradation CDK2 (% remaining) @ 10 μM (CDK2): 40%

Cc1cccc(C(=O)N[C@H]2C[C@@H](n3cnc4c(NCc5ccc(OCCCN6CCN(C(=O)COc7cccc8c7C(=O)N([C@H]7CCC(=O)NC7=O)C8=O)CC6)cc5)ncnc43)C2)n1 [Compound 113, N-((1s,3s)-3-(6-((4-(3-(4-(2-((2-(2,6-dioxopiperidin-3-yl)-1,3-dioxoisoindolin-4-yl)oxy)acetyl)piperazin-1-yl)propoxy)benzyl)amino)-9H-purin-9-yl)cyclobutyl)-6-methylpicolinamide]
Enzyme degradation CDK9 (% remaining) @ 0.1 μM (CDK9): 100% | Enzyme degradation CDK9 (% remaining) @ 1 μM (CDK9): 10% | Enzyme degradation CDK9 (% remaining) @ 10 μM (CDK9): 0% | Enzyme degradation CDK2 (% remaining) @ 0.1 μM (CDK2): 30/30/30% | Enzyme degradation CDK2 (% remaining) @ 1 μM (CDK2): 30/30/30% | Enzyme degradation CDK2 (% remaining) @ 10 μM (CDK2): 30/30/30%

Cc1cccc(C(=O)NC2CC(n3cnc4c(NCc5ccc(OCCCN6CCN(C(=O)CNc7ccc8c(c7)C(=O)N([C@H]7CCC(=O)NC7=O)C8=O)CC6)cc5)ncnc43)C2)n1 (stereo partly drawn) [Compound 114, N-((1s,3s)-3-(6-((4-(3-(4-((2-(2,6-dioxopiperidin-3-yl)-1,3-dioxoisoindolin-5-yl)glycyl)piperazin-1-yl)propoxy)benzyl)amino)-9H-purin-9-yl)cyclobutyl)-6-methylpicolinamide]
Enzyme degradation CDK9 (% remaining) @ 0.1 μM (CDK9): 0/0/0% | Enzyme degradation CDK9 (% remaining) @ 1 μM (CDK9): 0/0/0% | Enzyme degradation CDK9 (% remaining) @ 10 μM (CDK9): 0/0/0% | Enzyme degradation CDK2 (% remaining) @ 0.1 μM (CDK2): 30% | Enzyme degradation CDK2 (% remaining) @ 1 μM (CDK2): 40% | Enzyme degradation CDK2 (% remaining) @ 10 μM (CDK2): 50%

Cc1cccc(C(=O)N[C@H]2C[C@@H](n3cnc4c(NCc5ccc(OCCCN6CCN(C(=O)CNc7cccc8c7C(=O)N([C@H]7CCC(=O)NC7=O)C8=O)CC6)cc5)ncnc43)C2)n1 [Compound 115, N-((1s,3s)-3-(6-((4-(3-(4-((2-(2,6-dioxopiperidin-3-yl)-1,3-dioxoisoindolin-4-yl)glycyl)piperazin-1-yl)propoxy)benzyl)amino)-9H-purin-9-yl)cyclobutyl)-6-methylpicolinamide]
Enzyme degradation CDK9 (% remaining) @ 0.1 μM (CDK9): 0/0/0% | Enzyme degradation CDK9 (% remaining) @ 1 μM (CDK9): 0/0/0% | Enzyme degradation CDK9 (% remaining) @ 10 μM (CDK9): 0/0/0% | Enzyme degradation CDK2 (% remaining) @ 0.1 μM (CDK2): 30% | Enzyme degradation CDK2 (% remaining) @ 1 μM (CDK2): 40% | Enzyme degradation CDK2 (% remaining) @ 10 μM (CDK2): 50%
